Where two headings read alike, the source gives them in different places.
Experiments:
[1] = molecular target: T1, BSA (Bos taurus, UniProt P02769); parameters: Intact protein LC/MS covalent labelling, fragments in pools of five, 200 uM each, 4 °C; details: 24 h, 4 °C, pool of five; 200 µM; covalent
T1 construct: gene ALB
Method: (§1) Incubations were performed at 200 μM for each compound and 2 μM of protein (10 μM for BSA) for 24 h at 4 °C with moderate shaking. Incubation buffers varied among proteins (PBS pH 7.4 for QSOX1 and BSA; 10 mM HEPES pH 7.5, 0.3 M NaCl, 0.5 mM TCEP for PCAF, UPS8, and NUDT7; […]; 10 mM Na2HPO4 pH 7.5 100 mM NaCl 5 mM β-mercaptoethanol for NV3CP; 20 mM Na phosphate pH 7.5 for NNMT; […]. The reaction was stopped by quenching with formic acid, 0.4% final concentration. Each protein was incubated with the electrophilic library in pools of five compounds per well. The pool’s composition maximized the difference in mass between fragments in the same well. Incubations were performed with each fragment at 200 μM, for 24 h at 4 °C, to allow the screening of proteins that are not stable for long time periods at higher temperatures. Following incubation, we used intact protein [compound left out] chromatography/mass spectrometry (LC/MS) to identify the fragments and quantify their labeling (Figure 3A). […] There was good agreement between the percent of labeling of NUDT7 by 100 random individual compounds and that obtained in pools of five (R^2=0.78; Figure S6 and Data set 2 in the Supporting Information).

[2] = molecular target: T2, NUDT7 (Homo sapiens, UniProt P0C024); parameters: Intact protein LC/MS covalent labelling, fragments in pools of five, 200 uM each, 4 °C; details: 24 h, 4 °C, pool of five; 200 µM; covalent
T2 construct: residues 14-235, E. coli, pNIC28-Bsa4, N-terminal His6 tag removed by TEV, construct 26672 Da
T2 sequence (P0C024 14-235): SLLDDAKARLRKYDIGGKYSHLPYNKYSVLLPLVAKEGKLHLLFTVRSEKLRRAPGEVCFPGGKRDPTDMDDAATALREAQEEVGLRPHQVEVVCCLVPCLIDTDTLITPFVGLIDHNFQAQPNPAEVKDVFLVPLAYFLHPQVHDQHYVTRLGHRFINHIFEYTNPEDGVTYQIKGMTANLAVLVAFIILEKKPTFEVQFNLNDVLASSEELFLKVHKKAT
Method: as §1

[3] = molecular target: T3, OTUB2 (OTUB2A) (Homo sapiens, UniProt Q96DC9); parameters: Intact protein LC/MS covalent labelling, fragments in pools of five, 200 uM each, 4 °C; details: 24 h, 4 °C, pool of five; 200 µM; covalent
T3 construct: full length residues 1-234, E. coli BL21(DE3)-R3, His tag removed by TEV, construct 27312 Da
T3 sequence (Q96DC9 1-234): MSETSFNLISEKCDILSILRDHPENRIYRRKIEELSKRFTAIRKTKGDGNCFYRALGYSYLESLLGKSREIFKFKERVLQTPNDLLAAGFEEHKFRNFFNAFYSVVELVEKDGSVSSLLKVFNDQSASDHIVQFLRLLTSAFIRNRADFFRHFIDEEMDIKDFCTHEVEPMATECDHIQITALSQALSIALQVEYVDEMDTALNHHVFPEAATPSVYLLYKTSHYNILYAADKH
Method: as §1

[4] = molecular target: T4, PCAF (Homo sapiens, UniProt Q92831); parameters: Intact protein LC/MS covalent labelling, fragments in pools of five, 200 uM each, 4 °C; details: 24 h, 4 °C, pool of five; 200 µM; covalent
T4 construct: gene KAT2B
T4 sequence (Q92831 whole entry, the tested form may be a part): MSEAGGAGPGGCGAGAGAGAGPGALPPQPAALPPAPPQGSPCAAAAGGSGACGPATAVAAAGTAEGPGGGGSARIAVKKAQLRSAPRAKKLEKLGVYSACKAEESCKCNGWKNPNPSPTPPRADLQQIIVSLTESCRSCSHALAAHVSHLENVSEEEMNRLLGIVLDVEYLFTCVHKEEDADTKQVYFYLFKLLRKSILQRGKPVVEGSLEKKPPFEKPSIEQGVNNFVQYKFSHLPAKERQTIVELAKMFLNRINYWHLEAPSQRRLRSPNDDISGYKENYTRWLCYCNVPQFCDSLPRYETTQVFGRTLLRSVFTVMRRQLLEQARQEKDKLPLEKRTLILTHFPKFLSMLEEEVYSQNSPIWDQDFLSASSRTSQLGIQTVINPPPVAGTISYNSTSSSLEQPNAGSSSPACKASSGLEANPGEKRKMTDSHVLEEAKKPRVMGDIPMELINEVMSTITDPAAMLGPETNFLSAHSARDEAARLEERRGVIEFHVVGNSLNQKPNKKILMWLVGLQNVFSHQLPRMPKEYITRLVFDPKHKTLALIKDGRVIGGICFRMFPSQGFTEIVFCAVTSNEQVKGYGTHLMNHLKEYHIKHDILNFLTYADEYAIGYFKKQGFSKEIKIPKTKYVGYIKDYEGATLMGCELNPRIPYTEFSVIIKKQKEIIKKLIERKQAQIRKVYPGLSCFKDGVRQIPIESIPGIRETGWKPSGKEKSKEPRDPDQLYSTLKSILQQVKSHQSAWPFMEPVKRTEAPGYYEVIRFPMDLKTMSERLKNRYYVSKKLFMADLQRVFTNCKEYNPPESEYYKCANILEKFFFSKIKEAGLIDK
Method: as §1

[5] = in vitro; parameters: species or system CCD841, HEK293; details: human, hb2 cells, read-out: HB-2 Cells Viability (%)
[6] = in vitro; parameters: species or system HB2, HEK293; details: human, ccd841 cells
[7] = in vitro; parameters: species or system HB2, CCD841; details: human, hek293 cells

T1 sequence (P02769 whole entry, the tested form may be a part): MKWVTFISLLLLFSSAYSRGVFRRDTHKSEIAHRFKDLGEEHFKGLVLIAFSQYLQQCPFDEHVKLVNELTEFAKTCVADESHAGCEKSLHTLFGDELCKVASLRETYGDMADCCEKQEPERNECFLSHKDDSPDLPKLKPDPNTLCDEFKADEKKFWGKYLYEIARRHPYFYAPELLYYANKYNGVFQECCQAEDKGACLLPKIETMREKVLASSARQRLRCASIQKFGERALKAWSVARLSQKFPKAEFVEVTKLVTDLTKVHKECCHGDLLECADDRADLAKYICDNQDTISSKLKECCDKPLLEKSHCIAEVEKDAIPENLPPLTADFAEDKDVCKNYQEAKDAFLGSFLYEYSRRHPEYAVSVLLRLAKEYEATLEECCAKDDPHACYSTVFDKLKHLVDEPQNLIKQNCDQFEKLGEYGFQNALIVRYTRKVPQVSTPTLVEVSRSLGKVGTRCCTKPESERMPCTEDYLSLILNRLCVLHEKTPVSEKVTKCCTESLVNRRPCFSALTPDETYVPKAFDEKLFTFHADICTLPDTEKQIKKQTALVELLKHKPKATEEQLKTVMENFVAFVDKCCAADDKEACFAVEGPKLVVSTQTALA

## O=C(CCl)N1CCC2(CC1)OCCO2 [PCM-0102823]
[1]
  BSA: 0
[2]
  NUDT7: 0
[3]
  OTUB2: 0
[4]
  PCAF: 0
[5]
  viability at 48 h, 10 µM: 98.2%
[6]
  viability at 48 h, 10 µM: 99.2%
[7]
  viability at 48 h, 10 µM: 91.5%

## C=CC(=O)NC1(C(=O)N2CCN(C)CC2)CCCC1 [PCM-0103054]
[1]
  BSA: 0.08
[2]
  NUDT7: 0
[3]
  OTUB2: 0
[4]
  PCAF: 0
[5]
  viability at 48 h, 10 µM: 99.9%
[6]
  viability at 48 h, 10 µM: 109%
[7]
  viability at 48 h, 10 µM: 110%

## N#Cc1c(NC(=O)CCl)sc2c1CCCC2 [PCM-0102580]
[1]
  BSA: 0
[2]
  NUDT7: 0.72
[3]
  OTUB2: 0.1
[4]
  PCAF: 0
[5]
  viability at 48 h, 10 µM: 77.2%
[6]
  viability at 48 h, 10 µM: 78%
[7]
  viability at 48 h, 10 µM: 67.4%

## CCOC(=O)C1CCCCN1C(=O)CCl (centres unmarked) [PCM-0102937]
[1]
  BSA: 0
[2]
  NUDT7: 0
[3]
  OTUB2: 0.13
[4]
  PCAF: 0
[5]
  viability at 48 h, 10 µM: 90.3%
[6]
  viability at 48 h, 10 µM: 89.4%
[7]
  viability at 48 h, 10 µM: 71.9%

## Cc1ccc(CN(C)C(=O)CCl)o1 [PCM-0102399]
[1]
  BSA: 0
[2]
  NUDT7: 0.05
[3]
  OTUB2: 0
[4]
  PCAF: 0
[5]
  viability at 48 h, 10 µM: 25.7%
[6]
  viability at 48 h, 10 µM: 56.5%
[7]
  viability at 48 h, 10 µM: 31.8%

## Cc1ccc(C)c(-n2nc(C)cc2NC(=O)CCl)c1 [PCM-0102249]
[1]
  BSA: 0
[2]
  NUDT7: 0
[3]
  OTUB2: 0.43
[4]
  PCAF: 0
[5]
  viability at 48 h, 10 µM: 45.3%
[6]
  viability at 48 h, 10 µM: 64%
[7]
  viability at 48 h, 10 µM: 25.4%

## C=CC(=O)N1C(C)CNCC1C.O=C(O)C(F)(F)F (centres unmarked) [PCM-0102447]
[1]
  BSA: 0
[2]
  NUDT7: 0
[3]
  OTUB2: 0
[4]
  PCAF: 0
[5]
  viability at 48 h, 10 µM: 104%
[6]
  viability at 48 h, 10 µM: 109%
[7]
  viability at 48 h, 10 µM: 105%

## C=CC(=O)Nc1ccc(Cl)c(C#N)c1 [PCM-0102453]
[1]
  BSA: 0
[2]
  NUDT7: 0
[3]
  OTUB2: 0
[4]
  PCAF: 0
[5]
  viability at 48 h, 10 µM: 85.7%
[6]
  viability at 48 h, 10 µM: 86.4%
[7]
  viability at 48 h, 10 µM: 59.5%

## COc1ccc(C)cc1NC(=O)CCl [PCM-0103043]
[1]
  BSA: 0
[2]
  NUDT7: 0.06
[3]
  OTUB2: 0.27
[4]
  PCAF: 0
[5]
  viability at 48 h, 10 µM: 81.3%
[6]
  viability at 48 h, 10 µM: 79.1%
[7]
  viability at 48 h, 10 µM: 63.7%

## O=C(CCl)NCC1CCS(=O)(=O)C1 (centres unmarked) [PCM-0102896]
[1]
  BSA: 0
[2]
  NUDT7: 0
[3]
  OTUB2: 0.23
[4]
  PCAF: 0
[5]
  viability at 48 h, 10 µM: 102%
[6]
  viability at 48 h, 10 µM: 92.3%
[7]
  viability at 48 h, 10 µM: 117%

## CC(NC(=O)CCl)c1cc2ccccc2o1 (centres unmarked) [PCM-0102117]
[1]
  BSA: 0
[2]
  NUDT7: 0.12
[3]
  OTUB2: 0.41
[4]
  PCAF: 0
[5]
  viability at 48 h, 10 µM: 71%
[6]
  viability at 48 h, 10 µM: 70.7%
[7]
  viability at 48 h, 10 µM: 62.9%

## C=CCNC(=O)NC(=O)CCl [PCM-0102709]
[1]
  BSA: 0
[2]
  NUDT7: 0
[3]
  OTUB2: 0
[4]
  PCAF: 0
[5]
  viability at 48 h, 10 µM: 90%
[6]
  viability at 48 h, 10 µM: 77.7%
[7]
  viability at 48 h, 10 µM: 75.3%

## CC(NC(=O)CCl)c1ccc(Cl)cc1 (centres unmarked) [PCM-0102334]
[1]
  BSA: 0
[2]
  NUDT7: 0
[3]
  OTUB2: 0.25
[4]
  PCAF: 0
[5]
  viability at 48 h, 10 µM: 78.4%
[6]
  viability at 48 h, 10 µM: 67.8%
[7]
  viability at 48 h, 10 µM: 68.5%

## O=C(CCl)N1CC=C(c2ccccc2)CC1 [PCM-0103038]
[1]
  BSA: 0
[2]
  NUDT7: 0
[3]
  OTUB2: 0.09
[4]
  PCAF: 0
[5]
  viability at 48 h, 10 µM: 90.9%
[6]
  viability at 48 h, 10 µM: 86.8%
[7]
  viability at 48 h, 10 µM: 89.2%

## O=C(CCl)N1CCN(c2ccc([N+](=O)[O-])cc2)CC1 [PCM-0102094]
[1]
  BSA: 0
[2]
  NUDT7: 0.27
[3]
  OTUB2: 0
[4]
  PCAF: 0
[5]
  viability at 48 h, 10 µM: 1.2%
[6]
  viability at 48 h, 10 µM: 9.2%
[7]
  viability at 48 h, 10 µM: 1.3%

## C=CC(=O)N(C)CC(=O)N1c2ccccc2NC(=O)CC1C (centres unmarked) [PCM-0102729]
[1]
  BSA: 0
[2]
  NUDT7: 0
[3]
  OTUB2: 0
[4]
  PCAF: 0
[5]
  viability at 48 h, 10 µM: 104%
[6]
  viability at 48 h, 10 µM: 107%
[7]
  viability at 48 h, 10 µM: 107%

## Cl.O=C(CCl)N1CCN(c2cccc(Cl)c2)CC1 [PCM-0103032]
[1]
  BSA: 0
[2]
  NUDT7: 0.22
[3]
  OTUB2: 0.21
[4]
  PCAF: 0
[5]
  viability at 48 h, 10 µM: 12%
[6]
  viability at 48 h, 10 µM: 71.1%
[7]
  viability at 48 h, 10 µM: 58.5%

## Cc1sc(NC(=O)CCl)c(C)c1C [PCM-0102968]
[1]
  BSA: 0
[2]
  NUDT7: 0
[3]
  OTUB2: 0
[4]
  PCAF: 0
[5]
  viability at 48 h, 10 µM: 16.1%
[6]
  viability at 48 h, 10 µM: 57.3%
[7]
  viability at 48 h, 10 µM: 2.3%

## O=C(CCl)N1CCN(c2ncc(Cl)cc2Cl)CC1 [PCM-0103022]
[1]
  BSA: 0
[2]
  NUDT7: 0.22
[3]
  OTUB2: 0
[4]
  PCAF: 0
[5]
  viability at 48 h, 10 µM: 3.6%
[6]
  viability at 48 h, 10 µM: 36.4%
[7]
  viability at 48 h, 10 µM: 13.4%

## C=CC(=O)N1CCC2(CCc3ccccc3O2)C1 (centres unmarked) [PCM-0103025]
[1]
  BSA: 0
[2]
  NUDT7: 0
[3]
  OTUB2: 0.2
[4]
  PCAF: 0
[5]
  viability at 48 h, 10 µM: 101%
[6]
  viability at 48 h, 10 µM: 90.8%
[7]
  viability at 48 h, 10 µM: 103%

Reference: paper PMC6556873, “Rapid Covalent-Probe Discovery by Electrophile-Fragment Screening” (Journal of the American Chemical Society, 2019)
